What was measured:
BdUGT5g03300 = target: T1, BdUGT5g03300 (Brachypodium distachyon, UniProt I1IW79); assay type: biochemical
T1 sequence (I1IW79 1-469): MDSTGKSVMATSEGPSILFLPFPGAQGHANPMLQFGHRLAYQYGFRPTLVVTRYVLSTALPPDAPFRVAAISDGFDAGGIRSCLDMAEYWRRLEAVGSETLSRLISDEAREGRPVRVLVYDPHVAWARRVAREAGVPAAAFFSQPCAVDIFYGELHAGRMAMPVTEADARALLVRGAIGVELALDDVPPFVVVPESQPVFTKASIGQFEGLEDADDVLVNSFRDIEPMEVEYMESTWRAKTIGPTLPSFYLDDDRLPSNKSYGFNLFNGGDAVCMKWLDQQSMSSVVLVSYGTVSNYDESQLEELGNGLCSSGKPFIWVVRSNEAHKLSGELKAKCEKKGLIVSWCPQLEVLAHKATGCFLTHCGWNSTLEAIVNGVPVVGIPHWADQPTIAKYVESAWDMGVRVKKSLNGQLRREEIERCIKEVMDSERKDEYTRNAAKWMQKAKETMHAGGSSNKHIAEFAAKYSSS

[1] = system: roots of wheat cultivar Apogee seedlings; assay: Extracts from wheat roots exposed to mycotoxin, LC-MS/MS; assay type: in vivo, Triticum aestivum; details: 24 h
Procedure: (§1) Seedlings of Apogee and B. distachyon with roots 1–2 cm long were incubated in full-strength MS without sucrose and containing 50 mg l^−1 DON and/or either 50 mg l^−1 CUL (Apogee) or 10 mg l^−1 CUL (B. distachyon). The seedlings were placed into sterile 2 ml tubes containing 500 µl medium such that only the roots were submerged. After 24 h incubation under the same conditions as specified above for the elongation assays, the roots were cut from the seedlings, washed with 10% ethanol, briefly dried with tissue paper, and weighed. The roots were then ground in the Retsch Ball Mill MM 400 for 1 min at 30× s^−1 using two 5 mm steel balls, after which 500 µl methanol was added and the roots were extracted for 2 h at room temperature. The concentrations of DON, D3G, CUL, and CUL-glucosides were determined by LC-MS/MS.
DON, D3G, CUL, and CUL-glucosides were measured on a 6500+ QTrap MS/MS instrument (Sciex) coupled to an Agilent 1290 UHPLC system. A Kinetex C18 column (150×2.1 mm, 2.6 µm particle size; Phenomenex, Torrance, USA) was used for separation at 30 °C. […] DON and D3G were detected in negative ion mode first, and after 4.5 min the polarity was changed to positive electrospray mode to detect CUL and CUL-glucosides. […] D3G was determined with the [M+CH3COO]^− ion as the precursor (DP −80 V) with the following SRM settings: m/z 517.2 > 427.1 (CE −30 eV) and m/z 517.2 > 59.1 (CE −85 eV). […]

[2] = system: roots of Brachypodium distachyon seedlings; assay: Extracts from B. distachyon roots exposed to mycotoxin, LC-MS/MS; assay type: in vivo; details: 24 h; for D3G synthesis in the presence of CUL: 50 mg l^−1 DON, 10 mg l^−1 CUL
Procedure: as §1
DON, D3G, CUL, and CUL-glucosides were measured on a 6500+ QTrap MS/MS instrument (Sciex) coupled to an Agilent 1290 UHPLC system. A Kinetex C18 column (150×2.1 mm, 2.6 µm particle size; Phenomenex, Torrance, USA) was used for separation at 30 °C. Mobile phases consisted of mixtures of methanol and water (A, 10% MeOH; B, 97% MeOH) and both contained 5 mM ammonium acetate. A flow rate of 250 µl min^–1 and an injection volume of 1 µl were chosen. The gradient started with 0% B for 1.0 min and then increased linearly to 100% B at 8.5 min. The column was rinsed with 100% B for 3 min, before equilibration with the start conditions for another 3 min until the end of the run at 14.5 min. The switching valve of the mass spectrometer directed the eluent into the ion source between 3.0 min and 11.0 min. […] DON and D3G were detected in negative ion mode first, and after 4.5 min the polarity was changed to positive electrospray mode to detect CUL and CUL-glucosides. […] D3G was determined with the [M+CH3COO]^− ion as the precursor (DP −80 V) with the following SRM settings: m/z 517.2 > 427.1 (CE −30 eV) and m/z 517.2 > 59.1 (CE −85 eV). […]

HvUGT13248 [3] = target: T2, HvUGT13248 (Hordeum vulgare subsp. vulgare, UniProt M0Y4P1)
T2 sequence (M0Y4P1 1-475): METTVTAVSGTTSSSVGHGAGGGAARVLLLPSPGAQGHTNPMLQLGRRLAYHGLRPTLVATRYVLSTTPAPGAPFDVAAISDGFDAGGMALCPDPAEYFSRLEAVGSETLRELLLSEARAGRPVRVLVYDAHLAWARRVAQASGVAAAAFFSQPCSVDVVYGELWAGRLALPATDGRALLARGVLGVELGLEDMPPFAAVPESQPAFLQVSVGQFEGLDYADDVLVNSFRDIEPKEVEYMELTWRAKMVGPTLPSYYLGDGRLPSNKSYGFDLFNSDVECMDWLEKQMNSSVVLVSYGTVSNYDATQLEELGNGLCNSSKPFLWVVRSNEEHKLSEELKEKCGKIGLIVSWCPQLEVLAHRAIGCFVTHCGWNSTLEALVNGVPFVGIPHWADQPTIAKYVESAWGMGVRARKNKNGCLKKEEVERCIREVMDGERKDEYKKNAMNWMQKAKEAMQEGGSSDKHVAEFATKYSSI

wheat coleoptile tissue = system: wheat coleoptile tissue; set-up: method as in Wang and Miller, 1988; details: ref Wang and Miller, 1988, cited from earlier work
HvUGT13248 [4] = target: T2, HvUGT13248; assay: biochemical; details: read-out: Glucosylation rate of DON, percentage of the control

CC1(C)CCC[C@]2(C)[C@@H]3[C@H]1[C@@H](O)[C@@]2(C)C[C@H]3O [CUL, culmorin]
Increase of apparent KM with DON (BdUGT5g03300): ~50 fold | K ic of CUL (competitive inhibition, DON as variable substrate) (BdUGT5g03300): low µM range | K iu of CUL (uncompetitive inhibition, UDP-glucose as variable substrate) (BdUGT5g03300): 1.4 µM | Ki (BdUGT5g03300; read-out: K ic of CUL (competitive inhibition, DON as variable substrate)): < 1000 nM | Kd (BdUGT5g03300; read-out: KD of CUL at the acceptor binding site (implied by kinetics)): ~1000 nM | Effect of CUL on DON uptake by the roots ([1]; 50 mg l^−1 DON with 50 mg l^−1 CUL): did not inhibit DON uptake | Reduction in the D3G concentration in the roots caused by CUL ([1]; 50 mg l^−1 DON with 50 mg l^−1 CUL vs DON alone): ~6 fold | inhibition at 10 µg/mL ([2]; Brachypodium distachyon, OE-10R14 roots, 50 mg l^−1 DON with 10 mg l^−1 CUL, read-out: Reduction of D3G synthesis in the presence of CUL): ~58.6% | D3G synthesis in the presence of CUL ([2]; TILLING line 6829-3 (wild-type BdUGT5g03300 allele)): suppressed | D3G synthesis in the presence of CUL ([2]; TILLING mutant 6829-7 (BdUGT5g03300 W345*)): not further reduced | Specific activity (glucoside formation) (HvUGT13248 [3]): 6.94 ± 0.52 nmol/min/mg | Phytotoxicity on wheat by itself (wheat coleoptile tissue; 10 µM CUL (∼3 mg l^−1)): no phytotoxicity | Phytotoxicity on wheat coleoptile tissue (wheat coleoptile tissue; 1000 µM CUL): phytotoxic effect | remaining activity at 25 µM (HvUGT13248 [4]): 59 ± 6% | remaining activity at 125 µM (HvUGT13248 [4]): 13%

— publication PMC13415951 (Journal of Experimental Botany, 2026)
